Laboratory results: patent US20250368962A1, “THREE-DIMENSIONAL HEPATIC TISSUE AND METHOD OF MANUFACTURING THE SAME” (TOPPAN HOLDINGS INC., priority 2023, published 2025)

Legend:
[1] = tested on: spheroids consisting only of human hepatocytes (PXB cells); experiment: ATP assay (CellTiter Glo 3D) viability after exposure to hepatotoxicity-inducing compounds, Test Example 6 Condition 2; assay type: cell-based; conditions: calculated from cell viability (ATP), hepatocyte spheroids, exposure 168 hours, no bile acids, read-out: IC50 Condition 2 (spheroid)
[2] = tested on: three-dimensional hepatic tissue consisting only of human hepatocytes (PXB cells); experiment: ATP assay (CellTiter Glo 3D) viability after exposure to hepatotoxicity-inducing compounds, Test Example 6 Condition 1; assay type: cell-based; conditions: Hepatocyte, calculated from cell viability (ATP), exposure 168 hours from day 8 of culture, no bile acids, read-out: IC50 Condition 1 (present tissue)
Protocol: The resulting mixture was centrifuged at room temperature at 400×g for 2 minutes, the supernatant was removed, and the cells were resuspended in an HCM (product number “CC-3198”, manufactured by Lonza) containing 10 U/mL thrombin (product number “R4648”, manufactured by Sigma-Aldrich) and 1 v/v % endothelial cell growth supplement (ECGS) (product number “1052”, manufactured by Sciencell) to a cell density of 1.95×10^4 cells/2 μL to obtain a cell suspension.
2 μL of an HCM containing 5 mg/mL fibrinogen and 1 v/v % ECGS was added to a 48-well microplate (product number “3830-048”, manufactured by AGC Techno Glass) to form a droplet. The cell suspension was added to the interior of each droplet, and the 48-well microplate was then left to stand in an incubator for 40 minutes to form a fibrin gel in which the human hepatocytes were embedded. 0.5 mL of HCM containing 1 v/v % ECGS was added to each well in which the fibrin gel had been formed, and the cells were cultured under the conditions of 37° C. and 5% CO2. After the start of the culture, the medium was changed every two days.

Row | Structure (SMILES) | IC50 [1] [µM] | IC50 [2] [µM]
1 | CC(=O)N1CCN(c2ccc(OCC3COC(Cn4ccnc4)(c4ccc(Cl)cc4Cl)O3)cc2)CC1 (centres unmarked) [Ketoconazole] | 79.5 | 80.7
2 | CCc1oc2ccccc2c1C(=O)c1cc(Br)c(O)c(Br)c1 [Benzbromarone] | 256 | 249
3 | O=C(O)Cc1ccccc1Nc1c(Cl)cccc1Cl [Diclofenac] | 297 | 337
4 | CN(C)CCCN1c2ccccc2Sc2ccc(Cl)cc21 [Chlorpromazine] | 25 | 26.6
5 | C1CCC(C(CC2CCCCN2)C2CCCCC2)CC1 (centres unmarked) [Perhexiline] | 5.6 | 3.6
6 | CC(C)C(=O)Nc1ccc([N+](=O)[O-])c(C(F)(F)F)c1 [Flutamide] | 178 | 63.9
7 | Cc1c(C)c2c(c(C)c1O)CCC(C)(COc1ccc(CC3SC(=O)NC3=O)cc1)O2 (centres unmarked) [Troglitazone] | 202 | 92.9
8 | CS(=O)(=O)CCNCc1ccc(-c2ccc3ncnc(Nc4ccc(OCc5cccc(F)c5)c(Cl)c4)c3c2)o1 [Lapatinib] | 27.3 | 8.4
9 | CC(=O)Nc1ccc(O)cc1 [Acetaminophen] | 4670 | 5510
10 | Cc1ccc(C(=O)c2cc(O)c(O)c([N+](=O)[O-])c2)cc1 [Tolcapone] | 92.4 | 132
11 | NC(=O)N1c2ccccc2C=Cc2ccccc21 [Carbamazepine] | 978 | 843
12 | CS(=O)(=O)Nc1ccc([N+](=O)[O-])cc1Oc1ccccc1 [Nimesulide] | 683 | 323
13 | CCc1nn(CCCN2CCN(c3cccc(Cl)c3)CC2)c(=O)n1CCOc1ccccc1 [Nefazodone] | 46.5 | 39.9
